Reference: PubChem BioAssay (NCI)
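Results reflect a 48-hour exposure of cells in 96-well plates to compound at five concentrations. TGI is the concentration that stops growth completely.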

Tests used:
Assay in all cases: NCI anticancer screen, dose series, 48 h
SR leukemia = test system: SR leukemia
HOP-92 NSCLC = test system: HOP-92 NSCLC
IGROV1 ovarian = test system: IGROV1 ovarian
SF-539 CNS = test system: SF-539 CNS
SNB-78 CNS = test system: SNB-78 CNS
RXF 393 renal = test system: RXF 393 renal
KM12 colon = test system: KM12 colon
SK-MEL-2 melanoma = test system: SK-MEL-2 melanoma
M19-MEL melanoma = test system: M19-MEL melanoma
HCC-2998 colon = test system: HCC-2998 colon
MCF7 breast = test system: MCF7 breast

`NC(=O)COc1ccccc1` was tested, and the TGI (SR leukemia) was > 100 µM, the TGI (HOP-92 NSCLC) was > 100 µM and the TGI (IGROV1 ovarian) was > 100 µM. The TGI (SF-539 CNS) was > 100 µM, the TGI (SNB-78 CNS) was > 100 µM and the TGI (RXF 393 renal) was > 100 µM. For the same compound, the TGI (KM12 colon) was > 100 µM, the TGI (SK-MEL-2 melanoma) was > 100 µM and the TGI (M19-MEL melanoma) was > 100 µM. For the same compound, the TGI (HCC-2998 colon) was > 100 µM.

`COC(=O)c1cncc2c1CC1C3(C(=O)OC)C=NC(C4C(CO)=CCC43)C21C` (stereo not given) was tested, and the TGI (SR leukemia) was > 100 µM, the TGI (HOP-92 NSCLC) was > 100 µM and the TGI (IGROV1 ovarian) was > 100 µM. The TGI (SF-539 CNS) was > 100 µM, the TGI (MCF7 breast) was > 100 µM and the TGI (RXF 393 renal) was > 100 µM. For the same compound, the TGI (KM12 colon) was > 100 µM, the TGI (SK-MEL-2 melanoma) was > 100 µM and the TGI (HCC-2998 colon) was > 100 µM.

In the case of `CCOC(=O)C(O)(NC(C)=O)C(F)(F)F` (stereo not given), the TGI (SR leukemia) is reported as > 100 µM, the TGI (HOP-92 NSCLC) is reported as > 100 µM and the TGI (IGROV1 ovarian) is reported as > 100 µM. The TGI (SF-539 CNS) was > 100 µM, the TGI (MCF7 breast) was > 100 µM and the TGI (RXF 393 renal) was > 100 µM. For the same compound, the TGI (KM12 colon) was > 100 µM, the TGI (SK-MEL-2 melanoma) was > 100 µM and the TGI (HCC-2998 colon) was > 100 µM.

With `CCOC(=O)C1=C(C)NC(=S)NC1c1cccc(O)c1` (stereo not given) the TGI (SR leukemia) was > 95.6 µM, the TGI (HOP-92 NSCLC) was > 84.3 µM and the TGI (IGROV1 ovarian) was > 100 µM. The TGI (SF-539 CNS) was > 100 µM, the TGI (MCF7 breast) was > 100 µM and the TGI (RXF 393 renal) was 65.7 µM. The TGI (KM12 colon) was > 100 µM, the TGI (SK-MEL-2 melanoma) was 79 µM and the TGI (HCC-2998 colon) was > 90.4 µM.

Compound `CCCCCCCCCCCCCCCCNc1nc(=O)n(C2CC(O)C(CO)O2)cc1F` (stereo not given) has a TGI (SR leukemia) of 26.3 µM, a TGI (HOP-92 NSCLC) of 25.1 µM and a TGI (IGROV1 ovarian) of 27.6 µM. The TGI (SF-539 CNS) was 11.4 µM, the TGI (MCF7 breast) was 19.9 µM and the TGI (RXF 393 renal) was 28.4 µM. For the same compound, the TGI (KM12 colon) was 34 µM, the TGI (SK-MEL-2 melanoma) was 40.3 µM and the TGI (HCC-2998 colon) was 14.2 µM.

For `COS(=O)c1cc(Cl)cc(Cl)c1O` (stereo not given), the TGI (SR leukemia) was > 100 µM, the TGI (SF-539 CNS) was > 100 µM and the TGI (RXF 393 renal) was > 100 µM. The TGI (KM12 colon) was > 100 µM, the TGI (SK-MEL-2 melanoma) was > 100 µM and the TGI (M19-MEL melanoma) was > 100 µM. The TGI (HCC-2998 colon) was > 100 µM.

With `CCOP(=O)(OCC)C(Nc1ccc(F)cc1)c1cccc([N+](=O)[O-])c1` (stereo not given) the TGI (SR leukemia) was > 100 µM, the TGI (HOP-92 NSCLC) was > 100 µM and the TGI (IGROV1 ovarian) was > 100 µM. The TGI (SF-539 CNS) was > 100 µM, the TGI (MCF7 breast) was > 100 µM and the TGI (RXF 393 renal) was > 100 µM. For the same compound, the TGI (KM12 colon) was > 100 µM, the TGI (SK-MEL-2 melanoma) was > 100 µM and the TGI (HCC-2998 colon) was > 100 µM.

`O=C1C=CC(=O)c2ncccc21` showed a TGI (SR leukemia) of 5.88 µM, a TGI (HOP-92 NSCLC) of 3.25 µM and a TGI (IGROV1 ovarian) of 17.6 µM. For the same compound, the TGI (SF-539 CNS) was 22.6 µM, the TGI (MCF7 breast) was 25.8 µM and the TGI (RXF 393 renal) was 12.8 µM. The TGI (KM12 colon) was 25.5 µM, the TGI (SK-MEL-2 melanoma) was 28.2 µM and the TGI (HCC-2998 colon) was 21 µM.

In the case of `CC1(C)[C@@H]2C[C@H]1c1cnc(-c3ccccn3)cc1C2[C@@H]1c2cc(-c3ccccn3)ncc2[C@@H]2C[C@H]1C2(C)C` (stereo not given in full), the TGI (SR leukemia) is reported as > 100 µM, the TGI (HOP-92 NSCLC) is reported as > 100 µM and the TGI (IGROV1 ovarian) is reported as > 100 µM. For the same compound, the TGI (MCF7 breast) was > 100 µM, the TGI (RXF 393 renal) was > 100 µM and the TGI (KM12 colon) was > 100 µM. The TGI (SK-MEL-2 melanoma) was > 100 µM and the TGI (HCC-2998 colon) was > 100 µM.

Compound `COC(=O)C(COC(=O)/C=C/c1ccc(OC(C)=O)c(OC(C)=O)c1)OC(=O)/C=C/c1ccc(OC(C)=O)c(OC(C)=O)c1` (stereo not given) has a TGI (SR leukemia) of 11.1 µM, a TGI (HOP-92 NSCLC) of 47.6 µM and a TGI (IGROV1 ovarian) of 23.9 µM. The TGI (SF-539 CNS) was 24.2 µM, the TGI (MCF7 breast) was 21.8 µM and the TGI (RXF 393 renal) was 25.8 µM. The TGI (KM12 colon) was 30.8 µM, the TGI (SK-MEL-2 melanoma) was 26 µM and the TGI (HCC-2998 colon) was 43.4 µM.

With `CCCCSc1n/c(=C\c2ccc(N(C)C)cc2)c2nnnn12` the TGI (SR leukemia) was > 100 µM, the TGI (HOP-92 NSCLC) was > 100 µM and the TGI (IGROV1 ovarian) was > 100 µM. The TGI (SF-539 CNS) was > 100 µM, the TGI (MCF7 breast) was > 100 µM and the TGI (RXF 393 renal) was > 100 µM. For the same compound, the TGI (KM12 colon) was > 100 µM, the TGI (SK-MEL-2 melanoma) was > 100 µM and the TGI (HCC-2998 colon) was > 100 µM.

With `CC1(C)C2CC(c3ccncc3)ON2C(C)(C)N1O` (stereo not given) the TGI (SR leukemia) was > 100 µM, the TGI (HOP-92 NSCLC) was > 100 µM and the TGI (IGROV1 ovarian) was > 100 µM. For the same compound, the TGI (SF-539 CNS) was > 100 µM, the TGI (MCF7 breast) was > 100 µM and the TGI (RXF 393 renal) was > 100 µM. For the same compound, the TGI (KM12 colon) was > 100 µM, the TGI (SK-MEL-2 melanoma) was > 100 µM and the TGI (HCC-2998 colon) was > 100 µM.

`CCOC(=O)c1cn(-c2ccc(Cl)cc2)c(=O)n2c1nc1ccccc12` was tested, and the TGI (SR leukemia) was > 100 µM, the TGI (HOP-92 NSCLC) was > 100 µM and the TGI (IGROV1 ovarian) was > 100 µM. The TGI (SF-539 CNS) was > 100 µM, the TGI (MCF7 breast) was > 100 µM and the TGI (RXF 393 renal) was > 100 µM. The TGI (KM12 colon) was > 100 µM, the TGI (SK-MEL-2 melanoma) was > 100 µM and the TGI (HCC-2998 colon) was > 100 µM.

In the case of `COC(=O)[C@@H]1N2C(=S)N(c3ccccc3)C(=O)[C@H]2SC1(C)C`, the TGI (SR leukemia) is reported as > 100 µM, the TGI (HOP-92 NSCLC) is reported as 69.2 µM and the TGI (IGROV1 ovarian) is reported as > 100 µM. For the same compound, the TGI (SF-539 CNS) was > 100 µM, the TGI (MCF7 breast) was > 100 µM and the TGI (RXF 393 renal) was > 100 µM. For the same compound, the TGI (KM12 colon) was > 100 µM, the TGI (SK-MEL-2 melanoma) was > 100 µM and the TGI (HCC-2998 colon) was > 100 µM.

For `CCOC(=O)C(C(=O)Cc1ccccc1)c1ccccc1` (stereo not given), the TGI (SR leukemia) was > 100 µM, the TGI (HOP-92 NSCLC) was > 100 µM and the TGI (IGROV1 ovarian) was > 100 µM. The TGI (SF-539 CNS) was > 100 µM, the TGI (SNB-78 CNS) was > 100 µM and the TGI (KM12 colon) was > 100 µM. The TGI (SK-MEL-2 melanoma) was > 100 µM and the TGI (M19-MEL melanoma) was > 100 µM.

In the case of `CCN(CC)CCCNc1ccc2nnn3c4ccc(O)cc4c(=O)c1c23`, the TGI (SR leukemia) is reported as 21.8 µM, the TGI (HOP-92 NSCLC) is reported as 43.8 µM and the TGI (IGROV1 ovarian) is reported as 19.4 µM. It also gave a TGI (SF-539 CNS) of 22.8 µM, a TGI (SNB-78 CNS) of 32.5 µM and a TGI (MCF7 breast) of 34 µM. The TGI (RXF 393 renal) was 15 µM, the TGI (KM12 colon) was 20 µM and the TGI (SK-MEL-2 melanoma) was 28.8 µM. For the same compound, the TGI (M19-MEL melanoma) was 26.8 µM and the TGI (HCC-2998 colon) was 23.4 µM.

In the case of `COc1cc2ccnc3c2c(c1O)N(C)C=C3`, the TGI (SR leukemia) is reported as > 100 µM, the TGI (HOP-92 NSCLC) is reported as > 100 µM and the TGI (IGROV1 ovarian) is reported as 26.1 µM. For the same compound, the TGI (MCF7 breast) was > 91.6 µM, the TGI (RXF 393 renal) was 30 µM and the TGI (KM12 colon) was 40.2 µM. It also gave a TGI (SK-MEL-2 melanoma) of 33.9 µM and a TGI (HCC-2998 colon) of 48.2 µM.

With `Cc1ccc2c(c1)OC1Nc3ccccc3C1=C2O` (stereo not given) the TGI (SR leukemia) was > 100 µM, the TGI (HOP-92 NSCLC) was > 100 µM and the TGI (IGROV1 ovarian) was > 100 µM. It also gave a TGI (SF-539 CNS) of 44.4 µM, a TGI (MCF7 breast) of 45.9 µM and a TGI (RXF 393 renal) of 72.4 µM. The TGI (KM12 colon) was > 100 µM, the TGI (SK-MEL-2 melanoma) was 47.6 µM and the TGI (HCC-2998 colon) was 33.9 µM.

With `C=C1C[C@]23C[C@@]1(O)CC[C@H]2[C@@]12C=C[C@H](O)[C@@](C)(C(=O)O1)[C@H]2[C@@H]3C(=O)O` the TGI (SR leukemia) was > 100 µM, the TGI (HOP-92 NSCLC) was > 100 µM and the TGI (IGROV1 ovarian) was > 100 µM. For the same compound, the TGI (SF-539 CNS) was > 100 µM, the TGI (SNB-78 CNS) was > 100 µM and the TGI (RXF 393 renal) was > 100 µM. For the same compound, the TGI (KM12 colon) was > 100 µM, the TGI (SK-MEL-2 melanoma) was > 100 µM and the TGI (M19-MEL melanoma) was > 100 µM. The TGI (HCC-2998 colon) was > 100 µM.
